Source: patent US12077503B2, “Substituted cyclic amides and their use as herbicides” (FMC CORPORATION, priority 2015, dated 2024)

Columns and labels:
Format in all cases: in vivo
[1] = tested on: corn (Zea mays); assay: Test G Post-Emergence Protocol; conditions: Zea mays, post-emergence, 312 h; for plant injury at 15.625 g/ha: 15.625 g ai/ha, evaluated after 13 days (100=total damage to plant; 0=no damage to plant), read-out: Corn damage rating; for plant injury at 62.5 g/ha: 62.5 g ai/ha, read-out: Corn damage rating (100=total damage to plant; 0=no damage to plant); for plant injury at 62.5 g/ha / plant injury at 250 g/ha: evaluated after 13 days; for plant injury at 250 g/ha: 250 g ai/ha, read-out: damage to plant, Corn (100=total damage to plant; 0=no damage to plant)
Procedure, shortened: (§1)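 Values are percent visual injury at 13 days after treatment (0 none, 100 total). Treatment was a post-emergence spray at 15.625, 62.5 or 250 g/ha on 8-day-old pot plants kept at 24/16 °C.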

[2] = tested on: velvetleaf (Abutilon theophrasti); assay: Test G Post-Emergence Protocol; conditions: Abutilon theophrasti, post-emergence, 312 h; for pest or weed control at 15.625 g/ha: 15.625 g ai/ha, evaluated after 13 days (100=total damage to plant; 0=no damage to plant), read-out: Velvetleaf damage rating; for pest or weed control at 62.5 g/ha: 62.5 g ai/ha, read-out: Velvetleaf damage rating (100=total damage to plant; 0=no damage to plant); for pest or weed control at 62.5 g/ha / pest or weed control at 250 g/ha: evaluated after 13 days; for pest or weed control at 250 g/ha: 250 g ai/ha, read-out: damage to plant, Velvetleaf (100=total damage to plant; 0=no damage to plant)
Procedure, shortened: as §1

[3] = tested on: giant foxtail (Setaria faberi); assay: Test G Post-Emergence Protocol; conditions: Setaria faberi, post-emergence, 312 h; for pest or weed control at 15.625 g/ha: 15.625 g ai/ha, evaluated after 13 days (100=total damage to plant; 0=no damage to plant), read-out: Foxtail, Giant damage rating; for pest or weed control at 62.5 g/ha: 62.5 g ai/ha, read-out: Foxtail, Giant damage rating (100=total damage to plant; 0=no damage to plant); for pest or weed control at 62.5 g/ha / pest or weed control at 250 g/ha: evaluated after 13 days; for pest or weed control at 250 g/ha: 250 g ai/ha, read-out: damage to plant, Foxtail, Giant (100=total damage to plant; 0=no damage to plant)
Procedure, shortened: as §1

[4] = tested on: redroot pigweed (Amaranthus retroflexus); assay: Test G Post-Emergence Protocol; conditions: Amaranthus retroflexus, post-emergence, 312 h; for pest or weed control at 15.625 g/ha: 15.625 g ai/ha, evaluated after 13 days (100=total damage to plant; 0=no damage to plant), read-out: Pigweed, Redroot damage rating; for pest or weed control at 62.5 g/ha: 62.5 g ai/ha, read-out: Pigweed, Redroot damage rating (100=total damage to plant; 0=no damage to plant); for pest or weed control at 62.5 g/ha / pest or weed control at 250 g/ha: evaluated after 13 days; for pest or weed control at 250 g/ha: 250 g ai/ha, read-out: damage to plant, Pigweed, Redroot (100=total damage to plant; 0=no damage to plant)
Procedure, shortened: as §1

[5] = tested on: barnyardgrass (Echinochloa crus-galli); assay: Test G Post-Emergence Protocol; conditions: Echinochloa crus-galli, post-emergence, 312 h; for pest or weed control at 15.625 g/ha: 15.625 g ai/ha, evaluated after 13 days (100=total damage to plant; 0=no damage to plant), read-out: Barnyardgrass damage rating; for pest or weed control at 62.5 g/ha: 62.5 g ai/ha, read-out: Barnyardgrass damage rating (100=total damage to plant; 0=no damage to plant); for pest or weed control at 62.5 g/ha / pest or weed control at 250 g/ha: evaluated after 13 days; for pest or weed control at 250 g/ha: 250 g ai/ha, read-out: damage to plant, Barnyardgrass (100=total damage to plant; 0=no damage to plant)
Procedure, shortened: as §1

[6] = tested on: ivy-leaved morning glory (Ipomoea hederacea); assay: Test G Post-Emergence Protocol; conditions: Ipomoea, post-emergence, 312 h; for pest or weed control at 15.625 g/ha: 15.625 g ai/ha, evaluated after 13 days (100=total damage to plant; 0=no damage to plant), read-out: Morningglory, Ivy-leaved damage rating; for pest or weed control at 62.5 g/ha: 62.5 g ai/ha, read-out: Morningglory, Ivy-leaved damage rating (100=total damage to plant; 0=no damage to plant); for pest or weed control at 62.5 g/ha / pest or weed control at 250 g/ha: evaluated after 13 days; for pest or weed control at 250 g/ha: 250 g ai/ha, read-out: damage to plant, Morningglory, Ivy-leaved (100=total damage to plant; 0=no damage to plant)
Procedure, shortened: as §1

[7] = tested on: corn (Zea mays); assay: Test G Pre-Emergence Protocol; conditions: Zea mays, pre-emergence, 312 h, evaluated after 13 days; for plant injury at 15.625 g/ha: 15.625 g ai/ha; for plant injury at 15.625 g/ha / plant injury at 250 g/ha: read-out: Corn damage rating (100=total damage to plant; 0=no damage to plant); for plant injury at 62.5 g/ha: 62.5 g ai/ha, 100=total damage to plant, 0=no damage to plant, read-out: plant damage rating, Corn; for plant injury at 250 g/ha: 250 g ai/ha
Procedure, shortened: (§2)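 One day after sowing, pots are treated with a spray of test compound formulated in acetone/water 50:50 plus 0.5% Tween 20, giving 15.625, 62.5 or 250 g/ha. Evaluation on a 0–100 damage scale follows 13 days of glasshouse growth.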

[8] = tested on: velvetleaf (Abutilon theophrasti); assay: Test G Pre-Emergence Protocol; conditions: Abutilon theophrasti, pre-emergence, 312 h, evaluated after 13 days; for pest or weed control at 15.625 g/ha: 15.625 g ai/ha; for pest or weed control at 15.625 g/ha / pest or weed control at 250 g/ha: read-out: Velvetleaf damage rating (100=total damage to plant; 0=no damage to plant); for pest or weed control at 62.5 g/ha: 62.5 g ai/ha, 100=total damage to plant, 0=no damage to plant, read-out: plant damage rating, Velvetleaf; for pest or weed control at 250 g/ha: 250 g ai/ha
Procedure, shortened: as §2

[9] = tested on: giant foxtail (Setaria faberi); assay: Test G Pre-Emergence Protocol; conditions: Setaria faberi, pre-emergence, 312 h, evaluated after 13 days; for pest or weed control at 15.625 g/ha: 15.625 g ai/ha; for pest or weed control at 15.625 g/ha / pest or weed control at 250 g/ha: read-out: Foxtail, Giant damage rating (100=total damage to plant; 0=no damage to plant); for pest or weed control at 62.5 g/ha: 62.5 g ai/ha, 100=total damage to plant, 0=no damage to plant, read-out: plant damage rating, Foxtail, Giant; for pest or weed control at 250 g/ha: 250 g ai/ha
Procedure, shortened: as §2

[10] = tested on: redroot pigweed (Amaranthus retroflexus); assay: Test G Pre-Emergence Protocol; conditions: Amaranthus retroflexus, pre-emergence, 312 h, evaluated after 13 days; for pest or weed control at 15.625 g/ha: 15.625 g ai/ha; for pest or weed control at 15.625 g/ha / pest or weed control at 250 g/ha: read-out: Pigweed, Redroot damage rating (100=total damage to plant; 0=no damage to plant); for pest or weed control at 62.5 g/ha: 62.5 g ai/ha, 100=total damage to plant, 0=no damage to plant, read-out: plant damage rating, Pigweed, Redroot; for pest or weed control at 250 g/ha: 250 g ai/ha
Procedure, shortened: as §2

[11] = tested on: barnyardgrass (Echinochloa crus-galli); assay: Test G Pre-Emergence Protocol; conditions: Echinochloa crus-galli, pre-emergence, 312 h, evaluated after 13 days; for pest or weed control at 15.625 g/ha: 15.625 g ai/ha, read-out: Barnyard grass damage rating (100=total damage to plant; 0=no damage to plant); for pest or weed control at 62.5 g/ha: 62.5 g ai/ha, 100=total damage to plant, 0=no damage to plant, read-out: plant damage rating, Barnyardgrass; for pest or weed control at 250 g/ha: 250 g ai/ha, read-out: Barnyardgrass damage rating (100=total damage to plant; 0=no damage to plant)
Procedure, shortened: as §2

[12] = tested on: ivy-leaved morning glory (Ipomoea hederacea); assay: Test G Pre-Emergence Protocol; conditions: Ipomoea, pre-emergence, 312 h, evaluated after 13 days; for pest or weed control at 15.625 g/ha: 15.625 g ai/ha, read-out: Morning-glory, Ivy-leaved damage rating (100=total damage to plant; 0=no damage to plant); for pest or weed control at 62.5 g/ha: 62.5 g ai/ha, 100=total damage to plant, 0=no damage to plant, read-out: plant damage rating, Morningglory, Ivy-leaved; for pest or weed control at 250 g/ha: 250 g ai/ha, read-out: Morningglory, Ivy-leaved damage rating (100=total damage to plant; 0=no damage to plant)
Procedure, shortened: as §2

CN1C[C@@H](c2ccc(C(F)(F)F)cc2)[C@H](C(=O)Nc2cc(F)nc(F)c2)C1=O (racemic) [Compound 1515]
0%: plant injury at 15.625 g/ha [1] | plant injury at 62.5 g/ha [1] | plant injury at 250 g/ha [1] | pest or weed control at 15.625 g/ha [2] | pest or weed control at 62.5 g/ha [2] | pest or weed control at 250 g/ha [2] | pest or weed control at 15.625 g/ha [3] | pest or weed control at 62.5 g/ha [3] | pest or weed control at 250 g/ha [3] | pest or weed control at 15.625 g/ha [4] | pest or weed control at 62.5 g/ha [4] | pest or weed control at 250 g/ha [4] | pest or weed control at 15.625 g/ha [5] | pest or weed control at 62.5 g/ha [5] | pest or weed control at 250 g/ha [5] | pest or weed control at 15.625 g/ha [6] | pest or weed control at 62.5 g/ha [6] | pest or weed control at 250 g/ha [6] | plant injury at 15.625 g/ha [7] | plant injury at 62.5 g/ha [7] | plant injury at 250 g/ha [7] | pest or weed control at 15.625 g/ha [8] | pest or weed control at 62.5 g/ha [8] | pest or weed control at 250 g/ha [8] | pest or weed control at 15.625 g/ha [9] | pest or weed control at 62.5 g/ha [9] | pest or weed control at 250 g/ha [9] | pest or weed control at 15.625 g/ha [10] | pest or weed control at 62.5 g/ha [10] | pest or weed control at 250 g/ha [10] | pest or weed control at 15.625 g/ha [11] | pest or weed control at 62.5 g/ha [11] | pest or weed control at 250 g/ha [11] | pest or weed control at 15.625 g/ha [12] | pest or weed control at 62.5 g/ha [12] | pest or weed control at 250 g/ha [12]

CN1C[C@@H](c2ccc(C(F)(F)F)cc2)[C@H](C(=O)Nc2ccnnc2)C1=O (racemic) [Compound 1518]
0%: plant injury at 15.625 g/ha [1] | plant injury at 62.5 g/ha [1] | plant injury at 250 g/ha [1] | pest or weed control at 15.625 g/ha [2] | pest or weed control at 62.5 g/ha [2] | pest or weed control at 250 g/ha [2] | pest or weed control at 15.625 g/ha [3] | pest or weed control at 62.5 g/ha [3] | pest or weed control at 250 g/ha [3] | pest or weed control at 15.625 g/ha [4] | pest or weed control at 62.5 g/ha [4] | pest or weed control at 250 g/ha [4] | pest or weed control at 15.625 g/ha [5] | pest or weed control at 62.5 g/ha [5] | pest or weed control at 250 g/ha [5] | pest or weed control at 15.625 g/ha [6] | pest or weed control at 62.5 g/ha [6] | pest or weed control at 250 g/ha [6] | plant injury at 15.625 g/ha [7] | plant injury at 62.5 g/ha [7] | plant injury at 250 g/ha [7] | pest or weed control at 15.625 g/ha [8] | pest or weed control at 62.5 g/ha [8] | pest or weed control at 250 g/ha [8] | pest or weed control at 15.625 g/ha [9] | pest or weed control at 62.5 g/ha [9] | pest or weed control at 250 g/ha [9] | pest or weed control at 15.625 g/ha [10] | pest or weed control at 62.5 g/ha [10] | pest or weed control at 250 g/ha [10] | pest or weed control at 15.625 g/ha [11] | pest or weed control at 62.5 g/ha [11] | pest or weed control at 250 g/ha [11] | pest or weed control at 15.625 g/ha [12] | pest or weed control at 62.5 g/ha [12] | pest or weed control at 250 g/ha [12]
